Results published in patent publication US20100092526A1, “NANOEMULSION THERAPEUTIC COMPOSITIONS AND METHODS OF USING THE SAME” (NanoBio Corporation, priority 2008, published 2010).
Like-named read-outs stand apart in the source and are kept apart here.

Legend:
Burkholderia cepacia = experiment: MIC/MBC of nanoemulsions against gram-negative isolates (CLSI, alamar blue); assay type: cell-based; details: Burkholderia cepacia (n = 5), nanoemulsions in the presence of 5 mM EDTA
Pseudomonas aeruginosa [1] = experiment: as above; assay type: cell-based; details: Pseudomonas aeruginosa (n = 5)
Burkholderia cenocepacia = experiment: MIC/MBC against CF isolates (CLSI, alamar blue); details: for MBC / MIC: Burkholderia cenocepacia
Klebsiella pneumoniae = experiment: MIC/MBC of nanoemulsions against gram-negative isolates (CLSI, alamar blue); assay type: cell-based; details: Klebsiella pneumoniae (n = 5)
Escherichia coli = experiment: as above; assay type: cell-based; details: Escherichia coli (n = 5)
[2] = system: Stenotrophomonas maltophilia; experiment: MIC/MBC against CF isolates (CLSI, alamar blue); details: for MBC / MIC: Stenotrophomonas maltophilia
Acinetobacter baumannii [3] = experiment: MIC/MBC of nanoemulsions against gram-negative isolates (CLSI, alamar blue); assay type: cell-based; details: Acinetobacter baumannii (n = 5)
Pseudomonas aeruginosa [4] = experiment: MIC/MBC against CF isolates (CLSI, alamar blue); details: Pseudomonas aeruginosa
Proteus mirabilis = experiment: MIC/MBC of nanoemulsions against gram-negative isolates (CLSI, alamar blue); assay type: cell-based; details: Proteus mirabilis (n = 5)
[5] = system: Stenotrophomonas maltophilia; experiment: as above; assay type: cell-based; details: Stenotrophomonas maltophilia (n = 5); nanoemulsions in the presence of 5 mM EDTA
Acinetobacter baumannii [6] = experiment: MIC/MBC against clinical isolates (CLSI, alamar blue)
[7] = nanoemulsions in the presence of 5 mM EDTA
[8] = nanoemulsions in the presence of 5 mM EDTA, in µg/mL
[9] = CF Stenotrophomonas isolate NB41
[10] = CF Stenotrophomonas isolate NB42
[11] = CF Stenotrophomonas isolate NB43
[12] = CF Stenotrophomonas isolate NB44
[13] = CF Stenotrophomonas isolate NB45
[14] = CF Stenotrophomonas isolate Steno 1
[15] = CF Stenotrophomonas isolate Steno 2
[16] = CF Stenotrophomonas isolate Steno 3
[17] = CF Stenotrophomonas isolate Steno 4
[18] = CF Stenotrophomonas isolate Steno 6
[19] = CF Stenotrophomonas isolate Steno 8
[20] = Stenotrophomonas, each drug alone
[21] = Acinetobacter baumannii, Acinetobacter isolate NB31
[22] = Acinetobacter baumannii, Acinetobacter isolate NB32
[23] = Acinetobacter baumannii, Acinetobacter isolate NB33
[24] = Acinetobacter baumannii, Acinetobacter isolate NB34
[25] = Acinetobacter baumannii, Acinetobacter isolate NB35
[26] = Acinetobacter baumannii, Acinetobacter isolate NB36
[27] = Acinetobacter baumannii, Acinetobacter isolate NB37
[28] = Acinetobacter baumannii, Acinetobacter isolate NB38
[29] = Acinetobacter baumannii, Acinetobacter isolate NB39
[30] = Acinetobacter baumannii, Acinetobacter isolate NB40

NC[C@H]1O[C@H](O[C@H]2[C@H](O)[C@@H](O[C@H]3O[C@H](CO)[C@@H](O)[C@H](N)[C@H]3O)[C@H](N)C[C@@H]2N)[C@H](N)C[C@@H]1O [Tobramycin]
100.0%: % susceptible (Pseudomonas aeruginosa [1]) | % susceptible (Proteus mirabilis)
16 mg/L: MIC [2, 18] | MIC90 (Pseudomonas aeruginosa [4]) | MBC (Pseudomonas aeruginosa [4]; CF Pseudomonas isolate NB1) | MBC (Pseudomonas aeruginosa [4]; CF Pseudomonas isolate NB16) | MIC (Pseudomonas aeruginosa [4]; CF Pseudomonas isolate NB17) | MIC (Pseudomonas aeruginosa [4]; CF Pseudomonas isolate NB18) | MBC (Pseudomonas aeruginosa [4]; CF Pseudomonas isolate NB19) | MIC90 (Acinetobacter baumannii [6]; Acinetobacter baumannii) | MIC (Acinetobacter baumannii [6]; [24]) | MBC (Acinetobacter baumannii [6]; [25]) | MBC (Acinetobacter baumannii [6]; [28]) | MIC90 (Acinetobacter baumannii [6]; Acinetobacter, each drug alone)
0.25-1: MIC Range (Pseudomonas aeruginosa [1]; [8]) | MIC Range (Proteus mirabilis; [8])
2 mg/L: MBC (Pseudomonas aeruginosa [4]; CF Pseudomonas isolate NB2) | MIC (Pseudomonas aeruginosa [4]; CF Pseudomonas isolate NB11) | MIC (Pseudomonas aeruginosa [4]; CF Pseudomonas isolate NB16) | MIC (Pseudomonas aeruginosa [4]; CF Pseudomonas isolate NB19) | MIC (Acinetobacter baumannii [6]; [23]) | MIC (Acinetobacter baumannii [6]; [25]) | MBC (Acinetobacter baumannii [6]; [27]) | MIC (Acinetobacter baumannii [6]; [29])
1 mg/L: MIC (Burkholderia cenocepacia; CF Burkholderia isolate NB28b) | MIC50 (Pseudomonas aeruginosa [4]) | MIC (Pseudomonas aeruginosa [4]; CF Pseudomonas isolate NB1) | MIC (Pseudomonas aeruginosa [4]; CF Pseudomonas isolate NB7) | MIC (Pseudomonas aeruginosa [4]; CF Pseudomonas isolate NB8) | MIC (Pseudomonas aeruginosa [4]; CF Pseudomonas isolate NB9) | MIC (Pseudomonas aeruginosa [4]; CF Pseudomonas isolate NB13) | MIC50 (Proteus mirabilis; [7]) | MIC50 (Acinetobacter baumannii [6]; Acinetobacter baumannii) | MBC (Acinetobacter baumannii [6]; [21]) | MIC (Acinetobacter baumannii [6]; [21]) | MIC (Acinetobacter baumannii [6]; [22]) | MIC (Acinetobacter baumannii [6]; [28]) | MIC50 (Acinetobacter baumannii [6]; Acinetobacter, each drug alone)
0.5 mg/L: MIC50 (Pseudomonas aeruginosa [1]; [7]) | MIC50 (Escherichia coli; [7]) | MIC50 (Acinetobacter baumannii [3]; [7]) | MIC (Pseudomonas aeruginosa [4]; CF Pseudomonas isolate NB3) | MIC (Pseudomonas aeruginosa [4]; CF Pseudomonas isolate NB4) | MIC (Pseudomonas aeruginosa [4]; CF Pseudomonas isolate NB5) | MIC (Pseudomonas aeruginosa [4]; CF Pseudomonas isolate NB6) | MIC (Pseudomonas aeruginosa [4]; CF Pseudomonas isolate NB10) | MIC (Pseudomonas aeruginosa [4]; CF Pseudomonas isolate NB12) | MIC (Pseudomonas aeruginosa [4]; CF Pseudomonas isolate NB15) | MIC (Pseudomonas aeruginosa [4]; CF Pseudomonas isolate NB20) | MBC (Acinetobacter baumannii [6]; [26]) | MIC (Acinetobacter baumannii [6]; [26]) | MIC (Acinetobacter baumannii [6]; [27])
32 mg/L: MIC (Burkholderia cenocepacia; CF Burkholderia isolate NB21) | MBC (Burkholderia cenocepacia; CF Burkholderia isolate NB30) | MIC (Burkholderia cenocepacia; CF Burkholderia isolate NB30) | MIC [2, 10] | MBC [2, 18] | MIC (Pseudomonas aeruginosa [4]; CF Pseudomonas isolate NB14) | MBC (Pseudomonas aeruginosa [4]; CF Pseudomonas isolate NB17)
0.25-16: MIC Range (Klebsiella pneumoniae; [8]) | MIC Range (Escherichia coli; [8])
80.0%: % susceptible (Klebsiella pneumoniae) | % susceptible (Escherichia coli) | % susceptible (Acinetobacter baumannii [3])
> 32 mg/L: MBC (Burkholderia cenocepacia; CF Burkholderia isolate NB21) | MBC (Burkholderia cenocepacia; CF Burkholderia isolate NB22) | MIC (Burkholderia cenocepacia; CF Burkholderia isolate NB22) | MBC (Burkholderia cenocepacia; CF Burkholderia isolate NB23) | MIC (Burkholderia cenocepacia; CF Burkholderia isolate NB23) | MBC (Burkholderia cenocepacia; CF Burkholderia isolate NB24) | MIC (Burkholderia cenocepacia; CF Burkholderia isolate NB24) | MBC (Burkholderia cenocepacia; CF Burkholderia isolate NB25) | MIC (Burkholderia cenocepacia; CF Burkholderia isolate NB25) | MBC (Burkholderia cenocepacia; CF Burkholderia isolate NB26) | MIC (Burkholderia cenocepacia; CF Burkholderia isolate NB26) | MBC (Burkholderia cenocepacia; CF Burkholderia isolate NB27) | MIC (Burkholderia cenocepacia; CF Burkholderia isolate NB27) | MBC (Burkholderia cenocepacia; CF Burkholderia isolate NB29) | MIC (Burkholderia cenocepacia; CF Burkholderia isolate NB29) | MBC [2, 9] | MIC [2, 9] | MBC [2, 10] | MBC [2, 11] | MIC [2, 11] | MBC [2, 12] | MIC [2, 12] | MBC [2, 13] | MIC [2, 13] | MBC [2, 14] | MIC [2, 14] | MBC [2, 15] | MIC [2, 15] | MBC [2, 16] | MIC [2, 16] | MBC [2, 17] | MIC [2, 17] | MBC [2, 19] | MIC [2, 19] | MBC (Pseudomonas aeruginosa [4]; CF Pseudomonas isolate NB14) | MBC (Pseudomonas aeruginosa [4]; CF Pseudomonas isolate NB18) | MBC (Acinetobacter baumannii [6]; [24]) | MBC (Acinetobacter baumannii [6]; [30]) | MIC (Acinetobacter baumannii [6]; [30])
0.25 mg/L: MIC50 (Klebsiella pneumoniae; [7]) | MIC (Pseudomonas aeruginosa [4]; CF Pseudomonas isolate NB2)
> 16 mg/L: MIC50 (Burkholderia cepacia) | MBC (Pseudomonas aeruginosa [4]; CF Pseudomonas isolate NB7) | MBC (Pseudomonas aeruginosa [4]; read-out: MBC 90, 20 CF Pseudomonas isolates) | MBC (Pseudomonas aeruginosa [4]; read-out: MBC 90, second MBC 90 line of the summary, Stenotrophomonas, values equal those of the CF Pseudomonas isolates) | MIC50 [5]
>16: MIC Range (Burkholderia cepacia; in µg/mL)
4 mg/L: MBC (Burkholderia cenocepacia; CF Burkholderia isolate NB28b) | MBC (Pseudomonas aeruginosa [4]; CF Pseudomonas isolate NB3) | MBC (Pseudomonas aeruginosa [4]; CF Pseudomonas isolate NB4) | MBC (Pseudomonas aeruginosa [4]; CF Pseudomonas isolate NB5) | MBC (Pseudomonas aeruginosa [4]; CF Pseudomonas isolate NB6) | MBC (Pseudomonas aeruginosa [4]; CF Pseudomonas isolate NB10) | MBC (Pseudomonas aeruginosa [4]; CF Pseudomonas isolate NB11) | MBC (Pseudomonas aeruginosa [4]; CF Pseudomonas isolate NB13) | MBC (Acinetobacter baumannii [6]; [22]) | MBC (Acinetobacter baumannii [6]; [29]) | MBC (Acinetobacter baumannii [6]; Acinetobacter baumannii, read-out: MBC 50, 10 Acinetobacter isolates) | MBC (Acinetobacter baumannii [6]; Acinetobacter baumannii, read-out: MBC 50, Acinetobacter, each drug alone)
20.0%: % resistant (Klebsiella pneumoniae) | % resistant (Escherichia coli) | % resistant (Acinetobacter baumannii [3])
8 mg/L: MBC (Pseudomonas aeruginosa [4]; CF Pseudomonas isolate NB8) | MBC (Pseudomonas aeruginosa [4]; CF Pseudomonas isolate NB9) | MBC (Pseudomonas aeruginosa [4]; CF Pseudomonas isolate NB12) | MBC (Pseudomonas aeruginosa [4]; CF Pseudomonas isolate NB15) | MBC (Pseudomonas aeruginosa [4]; CF Pseudomonas isolate NB20) | MBC (Pseudomonas aeruginosa [4]; read-out: MBC 50, 20 CF Pseudomonas isolates) | MBC (Pseudomonas aeruginosa [4]; read-out: MBC 50, second MBC 50 line of the summary, Stenotrophomonas, values equal those of the CF Pseudomonas isolates) | MBC (Acinetobacter baumannii [6]; [23])
>32 mg/L: MBC 50 (Burkholderia cenocepacia; Burkholderia, each drug alone) | MBC 90 (Burkholderia cenocepacia; Burkholderia, each drug alone) | MIC90 (Burkholderia cenocepacia; Burkholderia, each drug alone) | MBC 50 [2, 20] | MBC 90 [2, 20] | MIC50 [2, 20] | MIC90 [2, 20] | MBC 90 (Acinetobacter baumannii [6]; Acinetobacter, each drug alone)
0.0%: % resistant (Pseudomonas aeruginosa [1]) | % resistant (Proteus mirabilis)
